Laboratory results reported in patent publication US20130303788A1, “METHOD OF PRODUCING BIPHENOLIC COMPOUND, NOVEL BIPHENYL COMPOUND AND SYNTHESIS METHOD THEREOF, AND PHARMACEUTICAL COMPOSITION FOR TREATING PARKINSON'S DISEASE” (Tzu Chi University, priority 2012, published 2013).

Assays:
[1] = test system: mouse model of PD (6-OHDA unilateral striatal lesion); test: Apomorphine-induced rotation test in 6-OHDA mouse model of PD; format: in vivo, NMRI mice
Method: The respective NMRI mouse was anesthetized with ketamine ([…], intraperitoneally). Subsequently, the respective NMRI mouse was placed into a stereotactic frame with nose and ear bars specially designed for mice. 6-hydroxydopamine (6-OHDA) was injected with saline containing 0.02% ascorbic acid (as a vehicle) into the right striatum of the respective NMRI mouse so that unilateral striatal lesion was induced (i.e., damage to dopaminergic neurons in the unilateral striatum was induced). The injection was conducted at a rate of 1 μL/minute using a Hamilton syringe at the following coordinates: AP: −0.9 mm; ML: −1.9 mm; DV: −2.2 mm with respect to bregma, and a final dose of 15 μg was administered. The needle was left standing for 5 minutes after the injection was finished, and was slowly withdrawn.
The respective NMRI mouse was allowed to habituate to the ambient environment for 10 minutes before the apomorphine-induced rotation test was performed. Apomorphine was then injected intraperitoneally into the respective NMRI mouse at a dose of 0.5 mg/kg. The respective NMRI mouse was placed in a glass bowl with a diameter of 20 cm and was attached to an automatic rotometer (TSE, Bad Homburg, Germany) via a specially designed harness. Each circular movement exceeding 30° was recorded. The contralateral movements (toward the nonlesioned side) and ipsilateral movements (toward the lesioned side) of the NMRI mice were counted during a period of 60 minutes. The net rotation was calculated according to the following formula:
where A=net rotation • B=the total number of ipsilateral movements during the period of 60 minutes • C=the total number of contralateral movements during the period of 60 minutes 4. Determination of TH (Tyrosine Hydroxylase) Expression Level and iNOS (Inducible Nitric Oxide Synthase) Expression Level: […]
6-OHDA was injected into NMRI mice according to the method as described in section 2 of General procedures. Product 1 or product 2 was administered intraperitoneally to the respective NMRI mouse at a dose of 5 mg/kg, 1 mg/kg, 0.5 mg/kg, 0.1 mg/kg, or 0.05 mg/kg for 14 consecutive days, starting on Day 7 after the 6-OHDA injection. NMRI mice into which a vehicle (saline containing 0.02% ascorbic acid) was injected (generally according to the method as described in section 2 of General Procedures, except that 6-OHDA was not injected), and which were not treated with product 1 or product 2 after the injection of the vehicle, served as a sham operated control. NMRI mice into which 6-OHDA was injected and which were not treated with product 1 or product 2 after the 6-OHDA injection served as a pathological control. The rotational behavior of the NMRI mice was evaluated using the apomorphine-induced rotation test as described in section 3 of General Procedures on Days 7, 14, and 21 after the 6-OHDA injection.

[2] = test system: TH (Tyrosine Hydroxylase); test: TH expression level (TH immunohistochemistry) in 6-OHDA mouse model of PD; format: in vivo, NMRI mice
Method: (§1) The respective NMRI mouse was deeply anaesthetized with thiopental (50 mg/kg, intraperitoneally). The respective NMRI mouse was perfused transcardially with a heparin solution (0.05% heparin in 0.1 M PBS), and was subsequently perfused with 100 mL of ice-cold fixative (4% paraformaldehyde in 0.1 M PBS). The brain of the respective NMRI mouse was removed and was postfixed in the same ice-cold fixative for 12 hours, followed by dehydration in 30% sucrose in 0.1 M PBS. The brain was frozen and was subjected to tissue slicing. Serial coronal sections (a thickness of 20 μm) were cut on a freezing microtome and were placed in PBS. The sections were later processed for free-floating TH or iNOS immunohistochemistry.
The sections were rinsed three times with PBS (30 minutes for each time), were treated with 3% H2O2/10% methanol in PBS for 30 minutes for quenching the endogenous peroxidase activity, and were rinsed three times with PBS. After preincubation with 0.5% normal goat serum (NGS)/0.2% Triton in PBS, the sections were incubated with a primary antibody (anti-TH antibody or anti-iNOS antibody, 1:5000, Novus Biologicals, Inc., Littleton, Colo., USA) in 0.5% NGS/PBS at 4° C. for 16-18 hours. After being rinsed three times with PBS, the sections were incubated with a biotinylated goat anti-rabbit IgG (1:200) in PBS for 1 hour. Subsequently, the sections were rinsed three times with PBS and were stained with 0.05% diaminobenzidine/0.03% H2O2 in PBS for 5 minutes. The respective section was placed on a gelatin-coated slide, dehydrated through ascending concentrations of alcohol, and covered with a slipcover for observation under a light microscope.
The obtained data were subjected to the statistical analysis as described in section 5 of General Procedures. TH expression level in the striatum was determined according to the method as described in section 4 of General Procedures.
TH expression level in the striatum and the substantia nigra (SN), and iNOS expression level in the striatum were determined according to the method as described in section 4 of General Procedures on Day 21 after the injection of 6-OHDA or the vehicle.
In addition, the optical density regarding the lesioned and unlesioned sites in the striatum and SN of the NMRI mice (e.g., the sham operated control, the pathological control, and the NMRI mice treated with product 1) was determined from the obtained photomicrographs illustrating TH expression level via ImageJ software (National Institutes of Health). The relative optical density was calculated using the following formula:
where J=relative optical density • K=optical density of the lesioned site • L=optical density of the unlesioned site

[3] = test system: iNOS (Inducible Nitric Oxide Synthase); test: iNOS expression level (iNOS immunohistochemistry) in striatum of 6-OHDA mouse model of PD; format: in vivo, NMRI mice; conditions: Day 21 after 6-OHDA, FIG. 17
Method: as §1
The sections were rinsed three times with PBS (30 minutes for each time), were treated with 3% H2O2/10% methanol in PBS for 30 minutes for quenching the endogenous peroxidase activity, and were rinsed three times with PBS. […]
TH expression level in the striatum and the substantia nigra (SN), and iNOS expression level in the striatum were determined according to the method as described in section 4 of General Procedures on Day 21 after the injection of 6-OHDA or the vehicle. […]

inflammatory pain = conditions: Lin Yi-Ruu et al. (2007); cited from earlier work

Structure (SMILES): C=CCc1ccc(O)c(-c2ccc(O)c(CC=C)c2)c1 [product 1, 5,3′-Diallyl-biphenyl-2,4′-diol]
- unilateral rotations (apomorphine-induced), subchronic post-treatment, 0.1 mg/kg ([1]; 0.1 mg/kg i.p., 14 consecutive days starting Day 7 after 6-OHDA, FIG. 13): not a low dose of product 1
- unilateral rotations (apomorphine-induced), subchronic post-treatment, 0.5 mg/kg ([1]; 0.5 mg/kg i.p., 14 consecutive days starting Day 7 after 6-OHDA, FIG. 13): significantly inhibited unilateral rotations
- unilateral rotations (apomorphine-induced), subchronic post-treatment, 1 mg/kg ([1]; 1 mg/kg i.p., 14 consecutive days starting Day 7 after 6-OHDA, FIG. 13): significantly inhibited unilateral rotations
- contralateral movements induced by apomorphine, subchronic treatment ([1]; 5 mg/kg or 10 mg/kg i.p. for 14 consecutive days after 6-OHDA injection, FIG. 11): significantly reduced the contralateral movements induced by apomorphine
- apomorphine-induced rotation behavior after single administration ([1]; 5 mg/kg or 10 mg/kg i.p. once, 30 minutes before 6-OHDA, tested one week after 6-OHDA, data not shown): did not prevent the apomorphine-induced rotation behavior
- TH expression level in right (lesioned) striatum vs pathological control, subchronic treatment ([2]; 5 mg/kg i.p. for 14 consecutive days after 6-OHDA injection, FIG. 12): significantly higher TH expression level
- loss of TH-ir fibers in the striatum, subchronic post-treatment ([2]; i.p. 14 consecutive days starting Day 7, Day 21 after 6-OHDA, FIGS. 14, 15(A), 16): significantly alleviated the loss of TH-ir fibers
- loss of TH-ir fibers in the substantia nigra (SN), subchronic post-treatment ([2]; i.p. 14 consecutive days starting Day 7, Day 21 after 6-OHDA, FIGS. 14, 15(B), 16): significantly alleviated the loss of TH-ir fibers
- iNOS expression in the striatum, subchronic post-treatment ([3]; 0.5, 1, 5 mg/kg i.p. 14 consecutive days starting Day 7): significantly inhibited iNOS expression in the striatum
- relationship between dose and number of iNOS-positive cells in the striatum ([3]; 0.5, 1, 5 mg/kg i.p.): dose-dependent relationship
- alleviation of inflammatory pain in an animal model (inflammatory pain): effective in alleviating inflammatory pain
